Experimental findings from article PMC10822168, “Development of potent isoflavone-based formyl peptide receptor 1 (FPR1) antagonists and their effects in gastric cancer cell models” (European journal of medicinal chemistry, 2023) are described below.

In one data set the test system is VEGFA mRNA. The experiment in a line: Real-time PCR of VEGFA mRNA expression in NCl–N87 and AGS cells. Conditions: 24 h, fMLF 10 nM, antagonists 1 or 2 μM, normalized to GAPDH, untreated = 1. It counts as cell-based, human. An excerpt: (§1) It has been reported that FPR1 can exert a tumor suppressor function in human GC by inhibiting angiogenesis and that silencing of the receptor increases the constitutive proangiogenic potential of GC cells. Therefore, we assessed the effect of 24a and 25a on the mRNA expression level and secretion of the proangiogenic factors, the vascular growth factor A (VEGFA), and the angiopoietin 2. […] These effects were more pronounced in NCl–N87 cells and resulted more strongly for 25a than 24a. The values obtained after each treatment were normalized to the expression of GAPDH and compared to the reference value of the two genes in untreated cells, which were set equal to 1 (Fig. 9).
(§2) Fig. 9. Effect of 24a and 25a on mRNA expression of VGFA and ANGPT2 in NCl–N87 and AGS cell lines. Real-time PCR experiments in NCl–N87 and AGS cells with specific primers for VEGFA and ANGPT2 genes. The mRNA expression was normalized on the GAPDH housekeeping gene. Expression analysis was performed after treatment with fMLF (10 nM) and 24a or 25a (1, 2, 5 μM) administrated alone or combining the lowest dose of 24a or 25a with fMLF. All expression values were calculated against the value of untreated PTX-sensitive cells, set equal to 1. Statistical analysis was assessed by comparing the values obtained using single drug treatment to those of corresponding untreated cells and the combined treatments to those of single treatments. The values of untreated PTX-resistant cells were compared with those of untreated PTX-sensitive ones. Data were mean ± SD (n = 3). *p < 0.05, **p < 0.001, ***p < 0.0002, ****p < 0.0001.
(§3) Total RNA was extracted from FPR1 antagonist-treated NCl–N87 and AGS treated cells using the Qiagen RNeasy Mini Kit (Qiagen, Hilden, Germany) following the manufacturer’s instructions. Samples were retro-transcribed using the iScript Advanced cDNA Synthesis Kit (Bio-Rad Laboratories, California, USA). Real-Time-PCRs analyzed cDNA samples for the evaluation of VEGFA and ANGPT2 expression. […] Relative quantification was performed using the ddCT method.
Background: Quantitative PCR measures a nucleic acid by following its amplification.

The subject of a further data set is ANGPT2 mRNA. The experiment in a line: Real-time PCR of ANGPT2 mRNA expression in NCl–N87 and AGS cells. It counts as cell-based, human. Conditions: 24 h, fMLF 10 nM, antagonists 1 or 2 μM, normalized to GAPDH, untreated = 1.
Text: as §1, §2, §3

For the next data set, the system named is AGS cells. Put plainly: MTT viability assay in AGS cells. The data set is classed as cell-based. The following applies: Homo sapiens. An excerpt: (§4) We decided to study, for the first time, the effect of pharmacological blockade of FPR1 on cell proliferation, cell migration, and angiogenesis in GC by using our antagonists 24a and 25a. We first assessed the expression levels of FPR1 and FPR2 mRNA in four GC cell lines, i.e., HGC27, derived from human gastric carcinoma, KATOIII, AGS, and NCl–N87, derived from human gastric adenocarcinoma. […] We first assessed the effect of compounds 24a and 25a on cell viability in both cell lines at 24, 48, and 72 h using the MTT assay (Table 2).
(§5) AGS and NCl–N87 human gastric cancer cell lines were purchased and authenticated by American Type Culture Collection (Manassas, Virginia, USA). All cell culture components were purchased from Sigma-Aldrich (Milan, Italy) and Celbio s.r.l. (Milano, Italy).
(§6) AGS and NCl–N87 human gastric cancer cell lines were grown in RPMI high glucose supplemented with 10% fetal bovine serum, 2 mM glutamine, 100 U/mL penicillin, 100 μg/mL streptomycin, in a humidified incubator at 37 °C with a 5% CO2 atmosphere.
(§7) Determination of cell growth was performed using the MTT assay at 24h, 48 h, and 72 h. On day 1, 5000 cells/well were seeded into 96-well plates in a volume of 100 μL. On day 2, the test compound was added at different concentrations. In all the experiments, the solvent used to dissolve the drug (ethanol, DMSO) was added in each control to evaluate possible cytotoxicity. After the established incubation time with drugs, MTT (0.5 mg/mL) was added to each well. Following 3 h incubation at 37 °C, the supernatant was removed. The formazan crystals were solubilized using 100 μL of DMSO and the absorbance values at 570 and 630 nm were determined on a Victor 3 microplate reader (PerkinElmer).

Data set [1] relates to NCl–N87 cells. Put plainly: MTT viability assay in NCl–N87 cells. It counts as cell-based. The following applies: Homo sapiens.
Text: as §4, §5, §6, §7
(In general: Tetrazolium assays rely on reduction of a dye to a coloured formazan, in cell work by metabolically active cells.)

Data set [2] has as its system NCl–N87 cells. Put plainly: Muse Ki67 proliferation assay in NCl–N87 cells. It counts as cell-based, human. Conditions: NCl–N87, 5 μM, 24 h; control cells 81.3%.
Description: Representative flow cytometry charts reporting percentage of Ki67 negative (blue) and positive (red) cells (panel A). Statistical charts reporting the results from three independent experiments and expressed as means ± SD (panel B). Statistical analysis was assessed by comparing the values obtained using single drug treatment to those of corresponding untreated cells and the combined treatments to those of the single treatments, *p < 0.05; **p < 0.001; ***p < 0.0001.
The Muse Ki67 Proliferation Assay was used with the Guava Muse Cell Analyzer according to manufacturer’s instructions (Luminex Corporation, Austin, USA). Briefly, the cells were stained after fixation and permeabilization procedures by using Hu Ki67 or Hu IgG1 control fluorochrome-conjugated antibodies to distinguish Ki67^+ or Ki67^− cells, respectively. The software provided the percentage of both Ki67(+) and Ki67(−) cells.
In a further data set the target is T1, human FPR1 (Homo sapiens, UniProt P21462).
T1 sequence (P21462 1-350): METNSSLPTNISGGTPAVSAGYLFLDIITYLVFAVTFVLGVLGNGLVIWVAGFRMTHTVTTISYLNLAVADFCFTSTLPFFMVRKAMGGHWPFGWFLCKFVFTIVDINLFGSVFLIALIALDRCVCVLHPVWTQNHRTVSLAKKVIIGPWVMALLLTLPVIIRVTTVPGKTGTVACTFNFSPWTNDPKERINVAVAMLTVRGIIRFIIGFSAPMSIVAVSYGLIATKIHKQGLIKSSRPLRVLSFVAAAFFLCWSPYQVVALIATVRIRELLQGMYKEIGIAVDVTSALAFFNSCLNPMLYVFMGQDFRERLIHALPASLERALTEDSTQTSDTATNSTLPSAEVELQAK
The experiment in a line: Antagonist effect on Ca2+ mobilization in FPR1-HL60 transfected cells. The following applies: inhibition of Ca2+ mobilization induced by 5 nM fMLF, N.A. = Not Active; for IC50: read-out: FPR1-HL60 (IC50). A general note: Calcium flux is commonly read through the fluorescence of an indicator in the cells.

A further data set is described as follows: in vitro. Conditions: rat, pH 7.4.
Where [3] appears, read: 48 h, read-out: AGS EC50 (μM ± S.E.M.) 48 h.
[4] abbreviates: read-out: AGS EC50 (μM ± S.E.M.) 24 h, 24 h.
Setting [5] is: read-out: AGS EC50 (μM ± S.E.M.) 72 h, 72 h.
[6] abbreviates: 48 h, read-out: NCl–N87 EC50 (μM ± S.E.M.) 48 h.
Where [7] appears, read: read-out: NCl–N87 EC50 (μM ± S.E.M.) 24 h, 24 h.
Setting [8] is: read-out: NCl–N87 EC50 (μM ± S.E.M.) 72 h, 72 h.

For orientation: EC50 means the concentration that produces a half-maximal response. As usually defined, the IC50 is the concentration at which inhibition is half-maximal. One may read the fraction remaining as what is left of the initial amount, in per cent. A higher fraction remaining goes with less turnover.

Structures are written as SMILES. Where two headings read alike, the source gives them in different places.

With `CCCCCCc1cc2c(=O)c(-c3ccccc3OC)c(C)oc2cc1OC(C)=O` [Compound 24a, 6-Hexyl-3-(2-methoxyphenyl)-2-methyl-4-oxo-4H-chromen-7-yl acetate], in the data set on VEGFA mRNA, the “VEGFA mRNA expression” value is on record as “dose-dependent increase”. For the same molecule, in the data set with ANGPT2 mRNA, the “angiopoietin 2 (ANGPT2) mRNA expression” value was “dose-dependent increase”. Besides, the EC50 in the data set with AGS cells (setting [3]) was determined as 11 ± 1.91 µM; in the data set with AGS cells (setting [4]), 24.7 ± 4 µM; in the data set with AGS cells (setting [5]), 7.55 ± 1.75 µM; in the data set with NCl–N87 cells [1] (setting [6]), 8.65 ± 0.65 µM; in the data set on NCl–N87 cells [1] (setting [7]) it was 32.9 ± 2.95 µM; with NCl–N87 cells [1] (setting [8]), 11.5 ± 1.2 µM. For the same molecule, in the data set with NCl–N87 cells [2], the “percentage of Ki67(+) cells” value is 73.1%.

As to `CCCCCCc1cc2c(=O)c(-c3ccccc3OC)c(C(F)(F)F)oc2cc1OC(C)=O` [Compound 25a, 6-Hexyl-3-(2-methoxyphenyl)-4-oxo-2-(trifluoromethyl)-4H-chromen-7-yl acetate], the “VEGFA mRNA expression” value in the data set with VEGFA mRNA was “dose-dependent increase”. In addition, the “angiopoietin 2 (ANGPT2) mRNA expression” value in the data set on ANGPT2 mRNA is on record as “dose-dependent increase”. The EC50 was 8 ± 0.1 µM in the data set on AGS cells (setting [3]); 16.7 ± 0.7 µM in the data set on AGS cells (setting [4]); 5.45 ± 3.45 µM with AGS cells (setting [5]); 10.2 ± 1 µM in the data set on NCl–N87 cells [1] (setting [6]); 13.3 ± 1.88 µM in the data set with NCl–N87 cells [1] (setting [7]); 2.65 ± 0.5 µM in the data set with NCl–N87 cells [1] (setting [8]).

For `CCCCCCc1cc2c(=O)c(-c3cccc(OC)c3)c(C(F)(F)F)oc2cc1OC(C)=O` [Compound 25b, 6-Hexyl-3-(3-methoxyphenyl)-4-oxo-2-(trifluoromethyl)-4H-chromen-7-yl acetate], the IC50 at human FPR1 turned out to be 0.16 ± 0.03 µM.

On to `CCCc1cc2c(=O)c(-c3cccc(OC)c3)c(C)oc2cc1OC(C)=O` [Compound 26b, 3-(3-Methoxyphenyl)-2-methyl-4-oxo-6-propyl-4H-chromen-7-yl acetate], for which the IC50 on human FPR1 was 0.15 ± 0.05 µM.

Regarding `CCCCc1cc2c(=O)c(-c3ccccc3OC)c(C)oc2cc1OC(C)=O` [Compound 28, 6-Butyl-3-(2-methoxyphenyl)-2-methyl-4-oxo-4H-chromen-7-yl acetate], the IC50 on human FPR1 was 0.8 ± 0.3 µM.

With `CCCCCc1cc2c(=O)c(-c3ccccc3OC)c(C)oc2cc1OC(C)=O` [Compound 29, 3-(2-Methoxyphenyl)-2-methyl-4-oxo-6-pentyl-4H-chromen-7-yl acetate], the IC50 at human FPR1 is 0.4 ± 0.1 µM.

In turn, `CCCCCCc1cc2c(=O)c(-c3ccccc3OC)c(C)oc2cc1OCC(F)F` [Compound 30, 7-(2,2-Difluoroethoxy)-6-hexyl-3-(2-methoxyphenyl)-2-methyl-4H-chromen-4-one] gave a fraction remaining at 0.5 h, 10 µM in the data set “in vitro” (rat liver microsomes) of 18%.

Regarding `CCCCCCc1cc2c(=O)c(-c3ccccc3OC)c(C)oc2cc1NC(C)=O` [Compound 35a, N-[6-Hexyl-3-(2-methoxyphenyl)-2-methyl-4-oxo-4H-chromen-7-yl]acetamide], in the data set “in vitro” (rat liver microsomes), the amount remaining at 0.5 h, 10 µM came to 14%.

Turning to `CCCc1cc2c(=O)c(-c3ccccc3OC)c(C)oc2cc1NC(C)=O` [Compound 36, N-[3-(2-methoxyphenyl)-2-methyl-4-oxo-6-propyl-4H-chromen-7-yl]acetamide], in the data set “in vitro” (rat liver microsomes), the amount remaining at 0.5 h, 10 µM turned out to be 15%.

`CCCCCCC(=O)Oc1cc2oc(C)c(-c3cccc(OC)c3)c(=O)c2cc1C` [Compound 37b, 3-(3-Methoxyphenyl)-2,6-dimethyl-4-oxo-4H-chromen-7-yl heptanoate]: the IC50 on human FPR1 was 21.9 ± 6.5 µM.

The molecule `CCCc1cc2c(=O)c(-c3ccccc3OC)c(C)oc2cc1OC(=O)N(C)C` [Compound 39, 3-(2-Methoxyphenyl)-2-methyl-4-oxo-6-propyl-4H-chromen-7-yl dimethylcarbamate] yielded an amount remaining at 0.5 h, 10 µM in “in vitro” (Liver) of 10%. Moreover, at human FPR1, the “FPR1-HL60 (IC50, μM)” value was “practically inactive” and the IC50 was 28.9 ± 7.6 µM.
